Reference: patent publication US4499090A, “N-(5-aminomethyl-2-oxazolin-2-yl)-N'-phenylureas, compositions and use” (Societe Cortial, S.A., priority 1982, dated 1985)

What was measured:
[1] = tested on: right auricle of a guinea pig; assay: Chronotropic effect induced by histamine on the spontaneously beating right auricle of a guinea pig; settings: Cavia porcellus, 100 microg/ml, 5 microg/ml of histamine
[2] = tested on: edema of a rat's foot induced by carrageenan; assay: Edema of a rat's foot induced by carrageenan; format: in vivo; settings: orally, 200 mg/kg
[3] = Toxicity determined in mice, oral and intraperitoneal administration; format: in vivo
Experimental: The toxicity was determined in mice for various ways of administration.

[4] = tested on: arrhythmias in mice subjected to chloroform anesthesia; assay: Arrhythmias in mice subjected to chloroform anesthesia; format: in vivo; settings: intraperitoneally, 100 mg/kg
GABA transaminase = assay: Action on GABA transaminase, concluded from second administration of bicuculline; format: in vivo; settings: concluded from lack of inhibition of convulsions at second bicuculline administration 5 hours later
[5] = tested on: convulsions induced by bicuculline; assay: Convulsions induced by injection of bicuculline; format: in vivo

| Structure (SMILES) | inhibition at 100 µg/mL [1] | inhibition of edema of a rat's foot induced by carrageenan [2] | mortality ([3]; intraperitoneally at 200 mg/kg) | mortality ([3]; orally at 300 mg/kg) | appearance of arrhythmias [4] | action on GABA transaminase (GABA transaminase) | type of activity ([5]; concluded from the bicuculline convulsion tests) | inhibition of convulsions induced by bicuculline ([5]; intraperitoneally, 80 mg/kg, 0.5 mg/kg of bicuculline 30 minutes later) | inhibition of convulsions induced by a second administration of bicuculline ([5]; intraperitoneally, 80 mg/kg, second administration of bicuculline 5 hours later) |
| --- | --- | --- | --- | --- | --- | --- | --- | --- | --- |
| CCN(CC)CC1CN=C(NC(=O)Nc2ccccc2)O1 (centres unmarked) [Example 1, N-(5-diethylaminomethyl-2-oxazolin-2-yl)-N'-phenylurea] | > 50% | 51% | did not cause any mortality | did not cause any mortality | prevented the appearance of arrhythmias | – | – | – | – |
| O=C(NC1=NCC(CN2CCCCC2)O1)Nc1ccccc1 (centres unmarked) [Example 2, N-Phenyl-N'-(5-piperidinomethyl-2-oxazoline-2-yl)urea] | – | – | did not cause any mortality | did not cause any mortality | prevented the appearance of arrhythmias | – | – | – | – |
| O=C(NC1=NCC(CN2CCc3ccccc3C2)O1)Nc1ccccc1 (centres unmarked) [Example 3] | – | – | did not cause any mortality | did not cause any mortality | – | does not act on the GABA transaminase | direct gabergic type | caused an inhibition of convulsions | no longer inhibits convulsions |
